Where two headings read alike, the source gives them in different places.
How the values were obtained:
[1] = target: rat brain adenylyl cyclase; details: cited from earlier work
Ob1771 pre-adipocytes = assay: inhibition of forskolin-stimulated [3H]cAMP formation in cells prelabeled with [3H]adenine, Ob1771; assay type: cell-based; details: read-out: IC50, forskolin-stimulated [3H]cAMP formation, Ob1771 pre-adipocytes
Experimental: (§1) The nucleotide prodrugs were tested for their capacity to inhibit the forskolin-stimulated formation of [^3H]cAMP in cells that had been preloaded with [^3H]adenine. Human macrophages and two preadipocyte cell lines were tested.
(§2) (i) Preadipocytes: Preadipocytes were cultured in DMEM LG medium that was supplemented with 8% fetal bovine serum and 1% of an antibiotics mixture in 2 ml Petri dishes until they reached 90-95% confluence. Growth medium was removed and 1 ml of DMEM LG medium containing 2,8-[^3H]-adenine (5μCi) was added to each dish. Cells were incubated for 2 h at 37° C. Medium was removed and cells were incubated for 15 min at 37° C. in 1 ml of unsupplemented medium. The medium was removed and 1 ml of DMEM LG medium supplemented with 0.1 mg/ml bovine serum albumin and 0.1 mM 3-isobutyl-1-methylxanthine was added.
(§3) Ten microliters of a solution of the test substance was added to yield the appropriate concentration of inhibitor in the medium. After 15 min of incubation at 37° C. 3 μl of a 10 mM solution of forskolin in ethanol was added to the medium and the cells were further incubated for 15 min at 37° C. The medium was removed and the reaction was stopped by the addition of 1 ml of a freshly prepared solution of 0.5 mM solution of cAMP in 0.3 M perchloric acid. Dishes were then kept on ice for 30 min. To 800 μl of the resulting cell extract was then added 90 μl of 0.5 M triethanolammonium chloride butler (pH=7.5). The extract was then neutralized by addition of aqueous potassium hydroxide. [^3H]cAMP was purified from a 700 μl portion of this mixture by sequential chromatography on Dowex 50 and alumina as previously described. A portion of the purified sample was used to quantify the […] formed and the remainder was used to quantify recovery by UV spectroscopy.

F442A pre-adipocytes = assay: inhibition of forskolin-stimulated [3H]cAMP formation in cells prelabeled with [3H]adenine, F442A; assay type: cell-based; details: 15 min preincubation, forskolin 15 min
Experimental: as §1, §2, §3

[2] = tested on: rat brain adenylyl cyclase; assay: inhibition of rat brain adenylyl cyclase; assay type: biochemical
Experimental: (§4) Adenylyl cyclase activities were determined as previously described, with a reaction mixture containing 100 μM 5′ATP, 5 mM MnCl2, and 100 μM forskolin. IC50 values were determined graphically.

[3] = tested on: adenylyl cyclase isolated from these tissues; assay: effect on adenylyl cyclase isolated from the tissues; assay type: biochemical; details: concentrations up to 300 μM
Human Macrophages = assay: inhibition of forskolin-stimulated [3H]cAMP formation in cells prelabeled with [3H]adenine, macrophages; assay type: cell-based; details: read-out: IC50, forskolin-stimulated [3H]cAMP formation, Human Macrophages
Experimental: as §1
(ii) Macrophages. Macrophages were plated on culture dishes and allowed to adhere in RPMI culture medium. Cells were labeled with 2,8-[^3H]-adenine as described above for the preadipocytes.
as §3

[4] = tested on: adenylyl cyclase of Ob1771 cell membranes; assay: inhibition of adenylyl cyclase of Ob1771 cell membranes; assay type: biochemical; details: for IC50: 100 μM 5′ATP, 5 mM MnCl2, 100 μM forskolin, determined graphically
Experimental: as §4

preadipocyte cell lines = assay: differentiation of preadipocyte cell lines; assay type: cell-based; details: both preadipocyte cell lines; not shown
[5] = tested on: isoproterenol-stimulated, cAMP/PKA-dependent Cl− channel of cardiac ventricular myocytes; assay: block of isoproterenol-stimulated Cl- channel in cardiac ventricular myocytes; assay type: cell-based; details: not shown, read-out: IC50 for block of Cl− channel function
rat atria = assay: contractility of isolated spontaneously contracting rat atria; details: preincubation with 10 μM for 15 min
Experimental: To test this, rat atria were excised from a male albino rat and attached to a strain gauge to allow contractions to be measured. The spontaneously contracting tissue was suspended in a chamber and allowed to equilibrate for 15 min in Krebs-Henseleit medium (Sigma K3753) supplemented with 25 mM […], 2.5 mM CaCl2, and 2 mM pyruvate, maintained at 37° and continuously gassed with […].

[6] = Table 1, from Johnson and coll. [27-32], read-out: IC50 for rat brain adenylyl cyclase
[7] = Table 1, read-out: IC50 to inhibit adenylyl cyclase
[8] = Ob1771, 15 min preincubation, forskolin 15 min
[9] = 100 μM 5′ATP, 5 mM MnCl2, 100 μM forskolin, determined graphically, read-out: IC50, Rat Brain Adenylyl Cyclase
[10] = 2′-triphosphate forms, read-out: IC50 for inhibition of rat brain adenylyl cyclase

CC1OC(n2cnc3c(N)ncnc32)CC1OP(=O)(O)OP(=O)(O)OP(=O)(O)OP(=O)(O)O (centres unmarked) [2′,5′ddAdo 3′˜PPPP]
IC50 [1, 6]: 0.0074 µM

C[C@H]1O[C@@H](n2cnc3c(N)ncnc32)C[C@@H]1OP(=O)(O)OP(=O)(O)OP(=O)(O)O [2′,5′ddAdo 3′˜PPP]
IC50 [1, 7]: 0.04 µM

CC1OC(n2cnc3c(N)ncnc32)CC1OP(=O)(O)OP(=O)(O)O (centres unmarked) [2′,5′ddAdo 3′˜PP]
IC50 [1, 6]: 0.1 µM

C[C@H]1O[C@@H](n2cnc3c(N)ncnc32)C[C@@H]1OP(O)(O)=S [2′,5′ddAdo 3′˜PS]
IC50 [1, 6]: 0.6 µM

C[C@H]1O[C@@H](n2cnc3c(N)ncnc32)C[C@@H]1OP(=O)(O)O [2′,5′ddAdo 3′˜P]
IC50 [1, 6]: 0.46 µM

C[C@H]1O[C@@H](n2cnc3c(N)ncnc32)C[C@@H]1O [2′,5′ddAdo, 2′,5′-dideoxyadenosine]
IC50 [1, 6]: 2.7 µM

Nc1ncnc2c1ncn2C1CC(OP(=O)(O)OP(=O)(O)OP(=O)(O)OP(=O)(O)O)C(CO)O1 (centres unmarked) [2′dAdo 3′˜PPPP]
IC50 [1, 6]: 0.0105 µM

Nc1ncnc2c1ncn2C1CC(OP(=O)(O)OP(=O)(O)OP(=O)(O)O)C(CO)O1 (centres unmarked) [2′dAdo 3′˜PPP]
IC50 [1, 6]: 0.09 µM

Nc1ncnc2c1ncn2C1CC(OP(=O)(O)OP(=O)(O)O)C(CO)O1 (centres unmarked) [2′dAdo 3′˜PP]
IC50 [1, 6]: 0.14 µM

Nc1ncnc2c1ncn2[C@H]1C[C@H](OP(O)(O)=S)[C@@H](CO)O1 [2′dAdo 3′˜PS]
IC50 [1, 6]: 3.1 µM

Nc1ncnc2c1ncn2[C@H]1C[C@H](OP(=O)(O)O)[C@@H](CO)O1 [2′dAdo 3′˜P]
IC50 [1, 6]: 1.2 µM

Nc1ncnc2c1ncn2[C@H]1C[C@H](O)[C@@H](CO)O1 [2′dAdo]
IC50 [1, 6]: 15 µM

CC(C)(C)C(=O)SCCOP(=O)(OCCSC(=O)C(C)(C)C)O[C@H]1CCC[C@H]1n1cnc2c(N)ncnc21 [(1R,2S)-9-(cyclopentyl)-Ade-2′-P-bis(t-Bu-SATE)]
IC50 (Ob1771 pre-adipocytes; [8]): > 30 µM

CC(C)(C)C(=O)SCCOP(=O)(OCCSC(=O)C(C)(C)C)O[C@@H]1CCC[C@@H]1n1cnc2c(N)ncnc21 [(1S,2R)-9-(cyclopentyl)-Ade-2′-P-bis(t-Bu-SATE)]
IC50 (Ob1771 pre-adipocytes; [8]): > 30 µM

Nc1ncnc2c1ncn2[C@@H]1O[C@H](CO)[C@@H](OP(=O)(O)OP(=O)(O)OP(=O)(O)O)[C@H]1O [Ado 3′˜PPP]
IC50 [1, 6]: 2 µM

Nc1ncnc2c1ncn2C1OC(CO)C(OP(=O)(O)OP(=O)(O)O)C1O (centres unmarked) [Ado 3′˜PP]
IC50 [1, 6]: 3.9 µM

Nc1ncnc2c1ncn2C1OC(CO)C(OP(=O)(O)O)C1O (centres unmarked) [Ado 3′˜P]
IC50 [1, 6]: 8.9 µM

Nc1ncnc2c1ncn2[C@@H]1O[C@H](CO)[C@@H](O)[C@H]1O [Ado]
IC50 [1, 6]: 82 µM

CC(=O)SCCOP(=O)(OCCSC(C)=O)O[C@H]1C[C@H](n2cnc3c(N)ncnc32)O[C@@H]1C [Compound 1, 2′,5′-dideoxyadenosine-3′-O-bis(S-acetyl-2-thioethyl) phosphate]
IC50 (F442A pre-adipocytes): 0.03 µM

C[C@H]1O[C@@H](n2cnc3c(N)ncnc32)C[C@@H]1OP(=O)(OCCSC(=O)C(C)(C)C)OCCSC(=O)C(C)(C)C [Compound 2, 2,5′-dideoxyadenosine-3′-O-bis(S pivaloyl-2-thioethyl) phosphate]
inhibition of Rat Brain Adenylyl Cyclase at 100 μM ([2]; at 100 μM): no inhibition
effect on the activity of adenylyl cyclases per se, enzyme from rat brain ([2]; isolated enzyme): no effect
IC50 (F442A pre-adipocytes): 0.1 µM
effect on adenylyl cyclase isolated from these tissues [3]: no effect
IC50 (Human Macrophages; human macrophages, 15 min preincubation, forskolin 15 min): 0.05 µM
inhibition of adenylyl cyclase of Ob1771 cell membranes at 100 μM ([4]; at 100 μM): 20% inhibition
effect on the activity of adenylyl cyclases per se, enzyme from the preadipocytes ([4]; isolated enzyme): no effect
IC50 (Ob1771 pre-adipocytes; [8]): 0.03 µM
rate of differentiation (preadipocyte cell lines): accelerated rates of differentiation
IC50 [5]: ~0.082 µM
stimulation of contractility caused by phenylephrine (rat atria): completely blocked
stimulation of contractility caused by forskolin (rat atria; not shown): completely blocked

C[C@H]1O[C@@H](n2cnc3c(N)ncnc32)C[C@@H]1OP(=O)(OCCSC(=O)c1ccccc1)OCCSC(=O)c1ccccc1 [Compound 3, 2,5′-dideoxyadenosine-3′-O-bis(S-benzoyl-2-thioethyl) phosphate]
IC50 (F442A pre-adipocytes): 0.8 µM

C[C@H]1O[C@@H](n2cnc3c(N)ncnc32)C[C@@H]1OP(=O)(OCCSC(=O)C(C)(C)C)OCCSC(=O)C(C)(C)C [Compound 5, β-L-2′,5′-dideoxyadenosine-3′-O-bis(S-pivaloyl-2-thioethyl)-phosphate]
IC50 (F442A pre-adipocytes): ~2 µM

CC(C)(C)C(=O)SCCOP(=O)(OCCSC(=O)C(C)(C)C)OC[C@@H]1CC[C@H](n2cnc3c(N)ncnc32)O1 [Compound 8, β-L-2′,3′-dideoxyadenosine-5′-O-bis(S-pivaloyl-2-thioethyl)-phosphate]
IC50 (Ob1771 pre-adipocytes; [8]): > 30 µM

CC1OC(n2cnc3c(N)ncnc32)CC1OP1(=O)OCc2ccccc2O1 (centres unmarked) [Compound 10, 2′,5′-dideoxyadenosine-3.0-cyclosaligenyl phosphate]
IC50 [2, 9]: 7 µM
IC50 (Human Macrophages; Homo sapiens, Macrophage): ~2 µM
IC50 [4]: 30 µM
IC50 (Ob1771 pre-adipocytes): ~2 µM

Cc1cccc2c1OP(=O)(OC1CC(n3cnc4c(N)ncnc43)OC1C)OC2 (centres unmarked) [Compound 11, 2′,5′-dideoxyadenosine-3′-O-cyclo-3-methyl-saligenyl phosphate]
IC50 [2, 9]: 7 µM
IC50 [4]: 60 µM
IC50 (Ob1771 pre-adipocytes): ~2 µM

CC(C)(C)C(=O)SCCOP(=O)(COCCn1cnc2c(N)ncnc21)OCCSC(=O)C(C)(C)C [Compound 13, bis(t-Bu-SATE)-9-(2-phosphonomethoxyethyl)-adenine]
IC50 (Ob1771 pre-adipocytes; [8]): > 30 µM

C[C@H](Cn1cnc2c(N)ncnc21)OCP(=O)(OCCSC(=O)C(C)(C)C)OCCSC(=O)C(C)(C)C [Compound 16, (R)-Bis(S-pivaloyl-2-thioethyl) 9-(2-phosphonylmethoxypropyl)-adenine]
IC50 (F442A pre-adipocytes): > 30 µM

Nc1ncnc2c1ncn2CCOCP(=O)(O)O [PMEA, 9-(phosphonomethoxyethyl)-adenine]
IC50 [1, 6]: 65 µM

Nc1ncnc2c1ncn2CCOCP(=O)(O)OP(=O)(O)OP(=O)(O)O [PMEApp]
IC50 [1, 7]: 0.17 µM

Nc1ncnc2c1ncn2[C@@H]1CCC[C@@H]1OP(=O)(O)OP(=O)(O)OP(=O)(O)O [reference compound]
IC50 [2, 10]: 0.45 µM

Nc1ncnc2c1ncn2[C@H]1CCC[C@H]1OP(=O)(O)OP(=O)(O)OP(=O)(O)O [reference compound]
IC50 [2, 10]: 9.86 µM

Nc1ncnc2c1ncn2[C@@H]1CC[C@H](COP(=O)(O)O)O1 [β-L-2′,3′-dd-5′-AMP]
IC50 [1, 6]: 62 µM

Nc1ncnc2c1ncn2C1CCC(COP(=O)(O)OP(=O)(O)OP(=O)(O)O)O1 [β-L-2′,3′-dd-5′-ATP]
IC50 [1, 7]: 0.024 µM

Nc1ncnc2c1ncn2[C@H]1O[C@@H](COP(=O)(O)O)[C@H](O)[C@@H]1O [β-L-5′-AMP]
IC50 [1, 6]: 200 µM
